Data taken from patent US5929124A, “Antimicrobial diterpenes” (priority 1997, dated 1999).
Values after ≈ are worked out from the molar mass of the structure shown. Where two headings read alike, the source gives them in different places.

Assays:
A. fumigatus = assay: Inhibition of Aspergillus spp. culture (broth microdilution, XTT); assay type: cell-based, Aspergillus fumigatus (strain ATCC#8001); conditions: 48 hours at 37° C.
Method: (§1) Formulae (i) was isolated as described in Example 1. Plant material was collected in Zimbabwe. A voucher specimen is deposited at the Institute of Pharmacognosy and Phytochemistry, University of Lausanne, Lausanne, Switzerland. Antimicrobial assays are performed by a modification of the broth microdilution susceptibility assay using the tetrazolium salt XTT (Examples 2-6, see summary of results in Table 1 below).
Aspergillus fumigatus (strain ATCC#8001) was subcultured from a refrigerated potato dextrose agar slant (immersed in mineral oil) onto a fresh potato dextrose agar slant. After 72 hours of incubation at 37° C., the slants were filled with 7 mL sterile, cold, distilled water and put on ice for 2 hours. After disrupting the tissue, spores were filtered through sterile gauze using a 30 cc syringe. The resulting mixture was centrifuged for 10 minutes at 2,000 rpm. The supernatant was discarded and the pellet was resuspended in 5 mL sterile, distilled water. […] Growth was assessed spectrophotometrically by measuring the appearance of soluble formazan stain at 450/650 nm using an Emax micro plate reader. Validation of the assay was confirmed by determination of the A. fumigatus minimum inhibitory concentration (MIC) for amphotericin B. MICs were also scored visually.

C. krusei = assay: Inhibition of Candida spp. culture (broth microdilution, XTT); assay type: cell-based, Candida krusei (strain ATCC #90030); conditions: Pichia kudriavzevii, 22 hours at 35° C.
Method: as §1
(§2) Candida albicans (strain ATCC #90028), Candida krusei (strain ATCC #90030), and Torulopsis (Candida) glabrata (strain ATCC #6258) were subcultured from cryopreserved stocks onto sabourand dextrose agar plates. Blastoconidia were suspended into RPMI-MOPS (media) and inoculated (500 CFW/well) into 96-well plates containing test compounds in a final volume of 100 μL/well. After 22 hours at 35° C., 25 μL of XTT (2,3-bis(2-methoxy-4-nitro-5-sulfophenyl)-5-[(phenylamino)carbonyl]-2H-tetrazolium hydroxide), (100 μg/mL) with PMS (phenazine methyl sulfate, 5 μM) were added to each well, followed by 2 hours of shaking. Growth was assessed spectrophotometrically by measuring the appearance of soluble formazan stain at 450 nm using an Emax microplate reader.

Vero cell proliferation = assay type: cell-based; conditions: monkey, vero cells; read-out: IC50 (Vero cell proliferation)
Excerpt: Formula (ii) compounds are those compounds of formula (I) wherein R13 is --O--bonded to R14 and R14 is --CHORa --, Ra being hydrogen, C1-4 alkyl, or formula (a). Formula (ii) compounds may be obtained according to Example 7. […] In general, inhibition of a microbial infection means inhibiting microbial growth, relative to an untreated control, by at least 30%, and preferably by 50% or 75%. Cytotoxicity assays utilized the same dye as a marker of cell viability.

S. aureus = assay: Inhibition of Staphylococcus aureus culture; assay type: cell-based; conditions: 24 hours at 35° C.
Method: as §1
Strains of Staphylococcus aureus were subcultured from cryopreserved stocks onto sheep blood agar plates (methicillin-sensitive reference strain ATCC #29213. Methicillin-resistant (MRSA) clinical isolate was obtained from Dr. Gary Doern, Director of Clinical Microbiology, University of Massachusetts Medical Center, Worcester, Mass.). Bacteria were suspended in Mueller Hinton broth and inoculated (5×10^4 CFU/well) into 96-well plates containing test compounds in a final volume of 100 μL/well. After 24 hours at 35° C., plates were shaken for 1 minute and turbidity was read manually at 650 nm using a Emax microplate reader (Molecular Devices, Sunnyvale, Calif. The MIC values of vancomycin and gentamicin in this screening assay are determined to be approximately 1 μg/mL and 0.6 μg/mL, respectively, well within the reported ranges (National Committee on Clinical Laboratory Standards Vol. 14, No. 16, 1994, Table 3).

Trichophyton rubrum = assay: Inhibition of dermatophytes; assay type: cell-based; conditions: T. rubrum, 96 hours, 10 isolates
Method: (§3) The in vitro activity of formula (I) against the dermatophytes Trichophyton rubrum, Trichophyton mentagrophytes, and Epidermophyton floccosum was measured. The data were collected after incubating for 96 hours.

Epidermophyton floccosum = assay: Inhibition of dermatophytes; assay type: cell-based; conditions: E. floccosum, 96 hours, 1 isolate
Method: as §3

[1] = test system: Trichophyton mentagrophytes; assay: Inhibition of dermatophytes; assay type: cell-based; conditions: T. mentagrophytes, 96 hours, 13 isolates
Method: as §3

C. albicans = assay: Inhibition of Candida spp. culture (broth microdilution, XTT); assay type: cell-based, Candida albicans (strain ATCC #90028); conditions: for minimum inhibitory concentration (MIC) for known antifungal agents: assay validation, result in words
Method: as §1, §2

T. glabrata = assay: as above; assay type: cell-based, Torulopsis (Candida) glabrata (strain ATCC #6258); conditions: Nakaseomyces glabratus, 22 hours at 35° C.
Method: as §1, §2

[2] = test system: Candida albicans strain # 64; assay: In vivo efficacy against fluconazole-sensitive candidiasis in mice; parameters: species or system ICR mice infected with Candida albicans
Method: Immunocompetent mice (ICR, Sprague-Dawley, Indianapolis, IN) were infected with a pathogenic strain (# 64) of Candida albicans which is sensitive to fluconazole. After 24 hours, dissemination of infection was shown by organ colony counts (kidney, spleen, and liver) greater than 10^5 CFU. Treatment began 24 hours after infection with the indicated dosage once a day for 10 days. One group received 20 mg/kg of the compound administered via oral gavage in 0.1 mL. The test compound was formulated in 40% polyethyleneglycol (MW 400). Another group received 40 mg/kg of th compound, administered as above. A third group received polyethylene glycol, and the last group received fluconazole dosed orally at 40 mg/kg twice a day.
After 30 days the percent survival in the group treated with fluconazole and the group treated with test compound (40 mg per kg body weight, twice a day) was measured. In addition, the organ fungal load was measured at days 1, 10, and 30.

[3] = Staphylococcus aureus, read-out: MIC
[4] = Candida albicans, 22 hours at 35° C.

Compound: CC1=C(CCO)C(=O)C(O)=C2C1=CC(=O)[C@@H]1C(C)(C)CCC[C@@]21C (relative stereo) [Formula (i), (4bR*,8aR*)-4b,5,6,7,8,8a-hexahydro-4-hydroxy-4b,8,8,1-tetramethyl-2-(2-hydroxy-ethyl) -3,9-phenanthrenedione]
- IC50 (A. fumigatus): 6.49 µg/mL
- MIC (A. fumigatus): 6.25 µg/mL
- IC50 (C. krusei): 0.55 µg/mL
- MIC (C. krusei): 1.56 µg/mL
- CC50 (Vero cell proliferation): 12.7 µg/mL
- MIC (S. aureus; [3]): 1.56 µg/mL
- MIC (Trichophyton rubrum; read-out: MIC range): 2 to 8 µg/mL
- MIC (Trichophyton rubrum; read-out: average MIC): 5 µg/mL
- MIC (Epidermophyton floccosum): 4 µg/mL
- MIC ([1]; read-out: MIC range): 0.5 to 8 µg/mL
- MIC ([1]; read-out: average MIC): 2.7 µg/mL
- IC50 (C. albicans; [4]): 0.12 µg/mL
- MIC (C. albicans; [4]): 0.78 µg/mL
- IC50 (T. glabrata): 0.44 µg/mL
- MIC (T. glabrata): 1.65 µg/mL

Compound: CC1=C(CCO)C(=O)C(O)=C2C1=CC(=O)[C@H]1C(C)(C)CCC[C@]21C (relative stereo) [test compound]
- dose response of the effect ([2]; 20 and 40 mg/kg oral gavage): dose-responsive
- fungal organ burdens in the kidney, liver, and spleen ([2]; after 10 days, either concentration of the test compound, vs mice treated with fluconazole): less than or equal to one half the burdens in the same organs of mice treated with fluconazole
- median survival ([2]; oral gavage once a day for 10 days, vehicle control 7 days, p=0.0018 log rank test): 17.5 days

Compound: Nc1nc(=O)[nH]cc1F [5-flucytosine]
- minimum inhibitory concentration (MIC) for known antifungal agents (C. albicans): within reported ranges

Compound: C[C@@H]1[C@H](O)[C@@H](C)/C=C/C=C/C=C/C=C/C=C/C=C/C=C/[C@H](O[C@@H]2O[C@H](C)[C@@H](O)[C@H](N)[C@@H]2O)C[C@@H]2O[C@](O)(C[C@@H](O)C[C@@H](O)[C@H](O)CC[C@@H](O)C[C@@H](O)CC(=O)O[C@H]1C)C[C@H](O)[C@H]2C(=O)O [amphotericin B]
- minimum inhibitory concentration (MIC) for known antifungal agents (C. albicans): within reported ranges

Compound: OC(Cn1cncn1)(Cn1cncn1)c1ccc(F)cc1F [fluconazole]
- minimum inhibitory concentration (MIC) for known antifungal agents (C. albicans): within reported ranges

Compound: C[C@@H]([C@H](N)C(=O)N[C@H](C(=O)O)[C@H]1O[C@@H](n2ccc(=O)[nH]c2=O)[C@H](O)[C@@H]1O)[C@H](O)c1ccc(O)cn1 [nikkomycin Z]
- minimum inhibitory concentration (MIC) for known antifungal agents (C. albicans): within reported ranges

Compound: NC(=O)OC[C@H](O)[C@@H](O)[C@H](N)C(=O)N[C@H](C(=O)O)[C@H]1O[C@@H](n2cc(C(=O)O)c(=O)[nH]c2=O)[C@H](O)[C@@H]1O [polyoxin D]
- minimum inhibitory concentration (MIC) for known antifungal agents (C. albicans): within reported ranges

Compound: CN[C@H](CC(C)C)C(=O)N[C@H]1C(=O)N[C@@H](CC(N)=O)C(=O)N[C@H]2C(=O)N[C@H]3C(=O)N[C@H](C(=O)N[C@H](C(=O)O)c4cc(O)cc(O)c4-c4cc3ccc4O)[C@H](O)c3ccc(c(Cl)c3)Oc3cc2cc(c3O[C@@H]2O[C@H](CO)[C@@H](O)[C@H](O)[C@H]2O[C@H]2C[C@](C)(N)[C@H](O)[C@H](C)O2)Oc2ccc(cc2Cl)[C@H]1O [vancomycin]
- MIC (S. aureus; [3]): ~1 µg/mL (≈ 0.69 µM)

Compound: gentamicin
- MIC (S. aureus): ~0.6 µg/mL
